Source: US20060069132A1, “Azolecarboxamide herbicides” (priority 2004, published 2006)

How the values were obtained:
[1] = system: smallflower umbrella sedge; experiment: Test C flooded paddy test; format: in vivo, Cyperus difformis
Surinam grass = experiment: Test C pre-/postemergence herbicide test; format: in vivo, Urochloa decumbens
Method in brief: (§1)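 Pre- and postemergence application, solvent/surfactant formulation; post at 1- to 4-leaf stage (2–18 cm). Greenhouse 12–14 d. Visual rating vs controls, 0 = no effect, 100 = complete control.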

velvetleaf [2] = experiment: Test C pre-/postemergence herbicide test; format: in vivo, Abutilon theophrasti
Method in brief: as §1

morningglory = experiment: Test C pre-/postemergence herbicide test; format: in vivo, Ipomoea coccinea; set-up: key to Plant response rating, Morningglory: 0 = no effect, 100 = complete control
Method in brief: as §1

kochia = experiment: Test C pre-/postemergence herbicide test; format: in vivo, Kochia scoparia
Method in brief: as §1

corn = experiment: Test C pre-/postemergence herbicide test; format: in vivo, Zea mays
Method in brief: as §1

velvetleaf [3] = experiment: Test B pre-/postemergence herbicide test; format: in vivo, Abutilon theophrasti; conditions: for Plant response rating, Velvetleaf: 0 = no effect, 100 = complete control
Method in brief: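 Plants compared with untreated controls 13–15 days post-treatment and given a visual 0–100 injury score. Applications: preemergence to seeds; postemergence at 1- to 4-leaf (2–18 cm); paddy species flooded, 2-leaf stage. Vehicle non-phytotoxic, surfactant included.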

[4] = 125 g ai/ha, scale 0 to 100 (0 no effect, 100 complete control)
[5] = 250 g ai/ha, scale of 0 to 100, 0 is no effect, 100 is complete control
[6] = 500 g ai/ha, visual rating after 12 to 14 days, scale 0 to 100 (0 no effect, 100 complete control)
[7] = 250 g ai/ha, scale 0-100, preemergence
[8] = 500 g ai/ha, scale 0 to 100 (0 no effect, 100 complete control), visual, 12 to 14 days, preemergence
[9] = 62 g ai/ha, preemergence, scale 0 to 100
[10] = 125 g ai/ha, scale 0 (no effect) to 100 (complete control), visual, 12 to 14 days, preemergence
[11] = 125 g ai/ha, visual rating, scale 0 (no effect) to 100 (complete control), postemergence
[12] = 500 g ai/ha, visual rating, preemergence
[13] = postemergence, 500 g ai/ha, scale 0 to 100, 0 is no effect, 100 is complete control

For `CCc1nn(C(C)(C)C)cc1C(=O)Nc1cc(C(=O)N(C)C)ccn1` [Compound 293], the “Sedge, Umbrella plant response rating” value ([1]; 62 g ai/ha, scale 0 to 100) was 20, the “Sedge, Umbrella plant response rating” value [1, 4] was 75 and the “Sedge, Umbrella plant response rating” value [1, 5] was 80. The “Plant response rating, Sedge, Umbrella” value [1, 6] was 90, the “Plant response rating, Surinam Grass” value (Surinam grass; [7]) was 100 and the “Plant response rating, Surinam Grass” value (Surinam grass; [8]) was 100. For the same compound, the “Plant response rating, Velvetleaf” value (velvetleaf [2]; [9]) was 80, the “Plant response rating, Velvetleaf” value (velvetleaf [2]; [7]) was 100 and the “Plant response rating, Velvetleaf” value (velvetleaf [2]; [8]) was 100. For the same compound, the “Plant response rating, Morningglory” value (morningglory; [7]) was 100, the “Plant response rating, Kochia” value (kochia; [9]) was 100 and the “Plant response rating, Kochia” value (kochia; [10]) was 100. The “Plant response rating, Kochia” value (kochia; [7]) was 100, the “Plant response rating, Kochia” value (kochia; [8]) was 100 and the “Plant response rating, Corn” value (corn; [10]) was 10. For the same compound, the “Plant response rating, Corn” value (corn; [7]) was 80, the “Plant response rating, Corn” value (corn; [8]) was 95 and the “Velvetleaf plant response rating” value (velvetleaf [3]; [11]) was 10. For the same compound, the “Plant response rating, Velvetleaf” value (velvetleaf [3]; [12]) was 100 and the “Velvetleaf plant response rating” value (velvetleaf [3]; [13]) was 30.
For `CCn1nc(C2(C)CC2)cc1C(=O)Nc1cc(C(=O)N(C)C)ccc1F` [Compound 299], the “Sedge, Umbrella plant response rating” value ([1]; 62 g ai/ha, scale 0 to 100) was 85, the “Sedge, Umbrella plant response rating” value [1, 4] was 95 and the “Sedge, Umbrella plant response rating” value [1, 5] was 95. The “Plant response rating, Sedge, Umbrella” value [1, 6] was 95, the “Plant response rating, Surinam Grass” value (Surinam grass; [9]) was 75 and the “Plant response rating, Surinam Grass” value (Surinam grass; [7]) was 100. For the same compound, the “Plant response rating, Surinam Grass” value (Surinam grass; [8]) was 100, the “Plant response rating, Velvetleaf” value (velvetleaf [2]; [9]) was 5 and the “Plant response rating, Velvetleaf” value (velvetleaf [2]; [7]) was 100. For the same compound, the “Plant response rating, Velvetleaf” value (velvetleaf [2]; [8]) was 100, the “Plant response rating, Morningglory” value (morningglory; [9]) was 5 and the “Plant response rating, Morningglory” value (morningglory; [10]) was 75. For the same compound, the “Plant response rating, Morningglory” value (morningglory; [7]) was 100, the “Plant response rating, Morningglory” value (morningglory; [8]) was 100 and the “Plant response rating, Kochia” value (kochia; [9]) was 100. For the same compound, the “Plant response rating, Kochia” value (kochia; [10]) was 100, the “Plant response rating, Kochia” value (kochia; [7]) was 100 and the “Plant response rating, Kochia” value (kochia; [8]) was 100. The “Plant response rating, Corn” value (corn; [10]) was 25, the “Plant response rating, Corn” value (corn; [7]) was 60 and the “Plant response rating, Corn” value (corn; [8]) was 60. For the same compound, the “Velvetleaf plant response rating” value (velvetleaf [3]; [11]) was 60, the “Plant response rating, Velvetleaf” value (velvetleaf [3]; [12]) was 100 and the “Velvetleaf plant response rating” value (velvetleaf [3]; [13]) was 100.
In the case of `CCn1nc2c(c1C(=O)Nc1cc(C(=O)N(C)C)ccc1F)CCC2(C)C` [Compound 352, N-[5-[(dimethylamino)carbonyl]-2-fluorophenyl]-2-ethyl-2,4,5,6-tetrahydro-6,6-dimethyl-3-cyclopentapyrazolecarboxamide], the pest or weed control at 62 g/ha ([1]; Cyperus difformis, 62 g ai/ha, scale 0 to 100, read-out: Sedge, Umbrella plant response rating) is reported as 50%, the pest or weed control at 125 g/ha ([1]; Cyperus difformis, 125 g ai/ha, scale 0 to 100 (0 no effect, 100 complete control), read-out: Sedge, Umbrella plant response rating) is reported as 75% and the pest or weed control at 250 g/ha ([1]; Cyperus difformis, 250 g ai/ha, scale of 0 to 100, 0 is no effect, 100 is complete control, read-out: Sedge, Umbrella plant response rating) is reported as 90%. The pest or weed control at 500 g/ha ([1]; Cyperus difformis, 500 g ai/ha, visual rating after 12 to 14 days, scale 0 to 100 (0 no effect, 100 complete control), read-out: Plant response rating, Sedge, Umbrella) was 95%, the “Plant response rating (0 = no effect, 100 = complete control), Surinam Grass” value (Surinam grass; 125 g ai/ha, preemergence) was 50 and the pest or weed control at 62 g/ha (Surinam grass; Urochloa decumbens, pre-emergence, 312 h, 62 g ai/ha, preemergence, scale 0 to 100, read-out: Plant response rating, Surinam Grass) was 10%. For the same compound, the pest or weed control at 250 g/ha (Surinam grass; Urochloa decumbens, pre-emergence, 312 h, 250 g ai/ha, scale 0-100, read-out: Plant response rating, Surinam Grass) was 100%, the pest or weed control at 500 g/ha (Surinam grass; Urochloa decumbens, pre-emergence, 312 h, 500 g ai/ha, scale 0 to 100 (0 no effect, 100 complete control), visual, 12 to 14 days, read-out: Plant response rating, Surinam Grass) was 100% and the “Plant response rating (0 = no effect, 100 = complete control), Velvetleaf” value (velvetleaf [2]; 125 g ai/ha, preemergence) was 5. It also gave a pest or weed control at 62 g/ha (velvetleaf [2]; Abutilon theophrasti, pre-emergence, 62 g ai/ha, preemergence, scale 0 to 100, read-out: Plant response rating, Velvetleaf) of 0%, a pest or weed control at 250 g/ha (velvetleaf [2]; Abutilon theophrasti, pre-emergence, 250 g ai/ha, scale 0-100, read-out: Plant response rating, Velvetleaf) of 70% and a pest or weed control at 500 g/ha (velvetleaf [2]; Abutilon theophrasti, pre-emergence, 500 g ai/ha, scale 0 to 100 (0 no effect, 100 complete control), visual, 12 to 14 days, read-out: Plant response rating, Velvetleaf) of 100%. For the same compound, the “Plant response rating (0 = no effect, 100 = complete control), Morningglory” value (morningglory; 125 g ai/ha, preemergence) was 5, the pest or weed control at 62 g/ha (morningglory; Ipomoea, pre-emergence, 62 g ai/ha, preemergence, scale 0 to 100, read-out: Plant response rating, Morningglory) was 5% and the pest or weed control at 250 g/ha (morningglory; Ipomoea, pre-emergence, 250 g ai/ha, scale 0-100, read-out: Plant response rating, Morningglory) was 40%. For the same compound, the pest or weed control at 500 g/ha (morningglory; Ipomoea, pre-emergence, 500 g ai/ha, scale 0 to 100 (0 no effect, 100 complete control), visual, 12 to 14 days, read-out: Plant response rating, Morningglory) was 60%, the “Plant response rating (0 = no effect, 100 = complete control), Kochia” value (kochia; 125 g ai/ha, preemergence) was 85 and the pest or weed control at 62 g/ha (kochia; Bassia scoparia, pre-emergence, 62 g ai/ha, preemergence, scale 0 to 100, read-out: Plant response rating, Kochia) was 80%. For the same compound, the pest or weed control at 250 g/ha (kochia; Bassia scoparia, pre-emergence, 250 g ai/ha, scale 0-100, read-out: Plant response rating, Kochia) was 100%, the pest or weed control at 500 g/ha (kochia; Bassia scoparia, pre-emergence, 500 g ai/ha, scale 0 to 100 (0 no effect, 100 complete control), visual, 12 to 14 days, read-out: Plant response rating, Kochia) was 100% and the “Plant response rating (0 = no effect, 100 = complete control), Corn” value (corn; 125 g ai/ha, preemergence) was 15. The Corn plant response rating (crop injury, 0 = no effect, 100 = complete kill) at 62 g/ha (corn; Zea mays, pre-emergence, 312 h, 62 g ai/ha, preemergence, scale 0 to 100) was 0%, the Corn plant response rating (crop injury, 0 = no effect, 100 = complete kill) at 250 g/ha (corn; Zea mays, pre-emergence, 312 h, 250 g ai/ha, scale 0-100) was 30% and the Corn plant response rating (crop injury, 0 = no effect, 100 = complete kill) at 500 g/ha (corn; Zea mays, pre-emergence, 312 h, 500 g ai/ha, scale 0 to 100 (0 no effect, 100 complete control), visual, 12 to 14 days) was 50%. The “Plant response rating (0 to 100 scale), Velvetleaf” value (velvetleaf [3]; 125 g ai/ha, 0 is no effect, 100 is complete control, preemergence) was 30, the pest or weed control at 125 g/ha (velvetleaf [3]; Abutilon theophrasti, post-emergence, 336 h, 125 g ai/ha, visual rating, scale 0 (no effect) to 100 (complete control), read-out: Velvetleaf plant response rating) was 10% and the pest or weed control at 500 g/ha (velvetleaf [3]; Abutilon theophrasti, post-emergence, 336 h, postemergence, 500 g ai/ha, scale 0 to 100, 0 is no effect, 100 is complete control, read-out: Velvetleaf plant response rating) was 60%.
